According to patent US20260262643A1, “HERBICIDAL BENZOXAZINES” (FMC CORPORATION, priority 2022, published 2026):

Assays:
barnyardgrass [1] = test: Test C preemergence; format: in vivo, Echinochloa crusgalli; settings: for Barnyardgrass plant response rating: preemergence, 0 to 100 scale (0 no effect, 100 complete control)
Method in brief: (§1)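 Seeds in loam–sand blend received preemergence directed soil spray of test chemicals in non-phytotoxic solvent with surfactant; postemergence treatment was applied at one- to two-leaf stage (2–10 cm). After 10 days in greenhouse, injury rated visually versus untreated controls, 0 (no effect) to 100 (complete control).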

blackgrass [2] = test: Test C preemergence; format: in vivo, Alopecurus myosuroides; settings: for Blackgrass plant response rating: preemergence, 0 to 100 scale (0 no effect, 100 complete control)
Method in brief: as §1

corn [3] = test: Test C preemergence; format: in vivo, Zea mays; settings: for Corn plant response rating: preemergence, 0 to 100 scale (0 no effect, 100 complete control)
Method in brief: as §1

green foxtail [4] = test: Test C preemergence; format: in vivo, Setaria viridis; settings: for Foxtail, Green plant response rating: preemergence, 0 to 100 scale (0 no effect, 100 complete control)
Method in brief: as §1

kochia [5] = test: Test C preemergence; format: in vivo, Bassia scoparia; settings: for Kochia plant response rating: preemergence, 0 to 100 scale (0 no effect, 100 complete control)
Method in brief: as §1

oat, wild [6] = test: Test C preemergence; format: in vivo, Avena fatua; settings: for Oat, Wild plant response rating: preemergence, 0 to 100 scale (0 no effect, 100 complete control)
Method in brief: as §1

pigweed, palmer [7] = test: Test C preemergence; format: in vivo, Amaranthus palmeri; settings: for Pigweed, Palmer plant response rating: preemergence, 0 to 100 scale (0 no effect, 100 complete control)
Method in brief: as §1

ragweed [8] = test: Test C preemergence; format: in vivo, Ambrosia artemisiifolia; settings: for Ragweed plant response rating: preemergence, 0 to 100 scale (0 no effect, 100 complete control)
Method in brief: as §1

ryegrass, Italian [9] = test: Test C preemergence; format: in vivo, Lolium multiflorum; settings: for Ryegrass, Italian plant response rating: preemergence, 0 to 100 scale (0 no effect, 100 complete control)
Method in brief: as §1

soybean [10] = test: Test C preemergence; format: in vivo, Glycine max; settings: for Soybean plant response rating: preemergence, 0 to 100 scale (0 no effect, 100 complete control)
Method in brief: as §1

wheat [11] = test: Test C preemergence; format: in vivo, Triticum aestivum; settings: for Wheat plant response rating: preemergence, 0 to 100 scale (0 no effect, 100 complete control)
Method in brief: as §1

barnyardgrass [12] = test: Test C postemergence; format: in vivo, Echinochloa crusgalli; settings: 10 days, 0 to 100 scale (0 no effect, 100 complete control)
Method in brief: as §1

blackgrass [13] = test: Test C postemergence; format: in vivo, Alopecurus myosuroides; settings: 10 days, 0 to 100 scale (0 no effect, 100 complete control)
Method in brief: as §1

corn [14] = test: Test C postemergence; format: in vivo, Zea mays; settings: 10 days, 0 to 100 scale (0 no effect, 100 complete control)
Method in brief: as §1

green foxtail [15] = test: Test C postemergence; format: in vivo, Setaria viridis; settings: 10 days, 0 to 100 scale (0 no effect, 100 complete control)
Method in brief: as §1

kochia [16] = test: Test C postemergence; format: in vivo, Bassia scoparia; settings: 10 days, 0 to 100 scale (0 no effect, 100 complete control)
Method in brief: as §1

oat, wild [17] = test: Test C postemergence; format: in vivo, Avena fatua; settings: 10 days, 0 to 100 scale (0 no effect, 100 complete control)
Method in brief: as §1

pigweed, palmer [18] = test: Test C postemergence; format: in vivo, Amaranthus palmeri; settings: 10 days, 0 to 100 scale (0 no effect, 100 complete control)
Method in brief: as §1

ragweed [19] = test: Test C postemergence; format: in vivo, Ambrosia artemisiifolia; settings: 10 days, 0 to 100 scale (0 no effect, 100 complete control)
Method in brief: as §1

ryegrass, Italian [20] = test: Test C postemergence; format: in vivo, Lolium multiflorum; settings: 10 days, 0 to 100 scale (0 no effect, 100 complete control)
Method in brief: as §1

soybean [21] = test: Test C postemergence; format: in vivo, Glycine max; settings: 10 days, 0 to 100 scale (0 no effect, 100 complete control)
Method in brief: as §1

wheat [22] = test: Test C postemergence; format: in vivo, Triticum aestivum; settings: 10 days, 0 to 100 scale (0 no effect, 100 complete control)
Method in brief: as §1

galium = test: Test C postemergence; format: in vivo, Galium aparine; settings: 10 days, 0 to 100 scale (0 no effect, 100 complete control)
Method in brief: as §1

horseweed = test: Test C postemergence; format: in vivo, Erigeron canadensis; settings: 10 days, 0 to 100 scale (0 no effect, 100 complete control)
Method in brief: as §1

barnyardgrass [23] = test: Test D flooded paddy test; format: in vivo, Echinochloa crus-galli; settings: 250 g ai/ha, applied to paddy water, visual rating after 13 to 14 days, scale 0 to 100 (0 no effect, 100 complete control)
Method in brief: (§2)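 Plants grown to the 2-leaf stage; pots flooded to 3 cm above soil at treatment and held at that depth throughout. Test compounds applied directly to the paddy water. After 13 to 14 days in a greenhouse, response was rated visually versus controls on a 0 (no effect) to 100 (complete control) scale.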

ducksalad = test: Test D flooded paddy test; format: in vivo, Heteranthera limosa; settings: 250 g ai/ha, applied to paddy water, visual rating after 13 to 14 days, scale 0 to 100 (0 no effect, 100 complete control)
Method in brief: as §2

rice = test: Test D flooded paddy test; format: in vivo, Oryza sativa; settings: 250 g ai/ha, applied to paddy water, visual rating after 13 to 14 days, scale 0 to 100 (0 no effect, 100 complete control)
Method in brief: as §2

sedge, umbrella = test: Test D flooded paddy test; format: in vivo, Cyperus difformis; settings: 250 g ai/ha, applied to paddy water, visual rating after 13 to 14 days, scale 0 to 100 (0 no effect, 100 complete control)
Method in brief: as §2

[24] = Preemergence, 125 g ai/ha, 0 to 100 scale, 0 no effect, 100 complete control

COc1ncn(-c2cccc(C(=O)N3C[C@H](C)Oc4c(C)cccc43)c2)n1 [Compound 307]
10: Corn plant response rating (corn [3]; 500 g ai/ha) | Wheat plant response rating (wheat [11]; Test C, 125 g ai/ha) | Plant response rating, Corn (corn [14]; Postemergence, 125 g ai/ha) | Plant response rating, Wheat (wheat [22]; Postemergence, 125 g ai/ha)
0: Corn plant response rating (corn [3]; Test C, 125 g ai/ha) | Ragweed plant response rating (ragweed [8]; Test C, 125 g ai/ha) | Plant response rating, Ragweed (ragweed [19]; Postemergence, 125 g ai/ha) | Plant response rating, Barnyardgrass (Flood) (barnyardgrass [23]) | Plant response rating, Ducksalad (Flood) (ducksalad) | Plant response rating, Rice (Flood) (rice) | Plant response rating, Sedge, Umbrella (Flood) (sedge, umbrella)
80: Blackgrass plant response rating (blackgrass [2]; 500 g ai/ha) | Kochia plant response rating (kochia [5]; 500 g ai/ha) | Ryegrass, Italian plant response rating (ryegrass, Italian [9]; 500 g ai/ha) | Ryegrass, Italian plant response rating (ryegrass, Italian [9]; Test C, 125 g ai/ha) | Plant response rating, Barnyardgrass (barnyardgrass [12]; 500 g ai/ha, postemergence) | Plant response rating, Oat, Wild (oat, wild [17]; 500 g ai/ha, postemergence) | Plant response rating, Wheat (wheat [22]; 500 g ai/ha, postemergence) | Plant response rating, Galium (galium; Postemergence, 125 g ai/ha)
90: Barnyardgrass plant response rating (barnyardgrass [1]; 500 g ai/ha) | Oat, Wild plant response rating (oat, wild [6]; 500 g ai/ha) | Wheat plant response rating (wheat [11]; 500 g ai/ha) | Plant response rating, Blackgrass (blackgrass [13]; 500 g ai/ha, postemergence) | Plant response rating, Foxtail, Green (green foxtail [15]; 500 g ai/ha, postemergence) | Plant response rating, Galium (galium; 500 g ai/ha, postemergence)
40: Barnyardgrass plant response rating (barnyardgrass [1]; Test C, 125 g ai/ha) | Blackgrass plant response rating (blackgrass [2]; Test C, 125 g ai/ha) | Kochia plant response rating (kochia [5]; Test C, 125 g ai/ha) | Plant response rating, Kochia (kochia [16]; Postemergence, 125 g ai/ha)
50: Oat, Wild plant response rating (oat, wild [6]; Test C, 125 g ai/ha) | Ragweed plant response rating (ragweed [8]; 500 g ai/ha) | Plant response rating, Barnyardgrass (barnyardgrass [12]; Postemergence, 125 g ai/ha) | Plant response rating, Corn (corn [14]; 500 g ai/ha, postemergence) | Plant response rating, Pigweed, Palmer (pigweed, palmer [18]; 500 g ai/ha, postemergence) | Plant response rating, Ragweed (ragweed [19]; 500 g ai/ha, postemergence)
100: Foxtail, Green plant response rating (green foxtail [4]; 500 g ai/ha) | Foxtail, Green plant response rating (green foxtail [4]; Test C, 125 g ai/ha) | Pigweed, Palmer plant response rating (pigweed, palmer [7]; 500 g ai/ha) | Soybean plant response rating (soybean [10]; 500 g ai/ha) | Plant response rating, Soybean (soybean [21]; 500 g ai/ha, postemergence) | Plant response rating, Soybean (soybean [21]; Postemergence, 125 g ai/ha)
60: Pigweed, Palmer plant response rating (pigweed, palmer [7]; Test C, 125 g ai/ha) | Plant response rating, Foxtail, Green (green foxtail [15]; Postemergence, 125 g ai/ha) | Plant response rating, Ryegrass, Italian (ryegrass, Italian [20]; Postemergence, 125 g ai/ha)
20: Soybean plant response rating (soybean [10]; Test C, 125 g ai/ha) | Plant response rating, Oat, Wild (oat, wild [17]; Postemergence, 125 g ai/ha) | Plant response rating, Pigweed, Palmer (pigweed, palmer [18]; Postemergence, 125 g ai/ha) | Plant response rating, Horseweed (horseweed; Postemergence, 125 g ai/ha)
70: Plant response rating, Blackgrass (blackgrass [13]; Postemergence, 125 g ai/ha) | Plant response rating, Kochia (kochia [16]; 500 g ai/ha, postemergence) | Plant response rating, Ryegrass, Italian (ryegrass, Italian [20]; 500 g ai/ha, postemergence)
30: Plant response rating, Horseweed (horseweed; 500 g ai/ha, postemergence)

Cc1ccc(-n2cnc(C(C)C)n2)cc1C(=O)N1CC(C(F)(F)F)Oc2c(Cl)cccc21 (centres unmarked) [Compound 354]
20: Plant response rating, Corn (corn [3]; [24]) | Plant response rating, Blackgrass (blackgrass [13]; 500 g ai/ha, postemergence) | Plant response rating, Corn (corn [14]; Postemergence, 125 g ai/ha) | Plant response rating, Ryegrass, Italian (ryegrass, Italian [20]; Postemergence, 125 g ai/ha)
60: Plant response rating, Corn (corn [14]; 500 g ai/ha, postemergence) | Plant response rating, Oat, Wild (oat, wild [17]; Postemergence, 125 g ai/ha) | Plant response rating, Wheat (wheat [22]; 500 g ai/ha, postemergence)
100: Barnyardgrass plant response rating (barnyardgrass [1]; 500 g ai/ha) | Foxtail, Green plant response rating (green foxtail [4]; 500 g ai/ha) | Plant response rating, Foxtail, Green (green foxtail [4]; [24]) | Pigweed, Palmer plant response rating (pigweed, palmer [7]; 500 g ai/ha) | Plant response rating, Pigweed, Palmer (pigweed, palmer [7]; [24]) | Ragweed plant response rating (ragweed [8]; 500 g ai/ha) | Ryegrass, Italian plant response rating (ryegrass, Italian [9]; 500 g ai/ha) | Soybean plant response rating (soybean [10]; 500 g ai/ha) | Plant response rating, Pigweed, Palmer (pigweed, palmer [18]; 500 g ai/ha, postemergence) | Plant response rating, Soybean (soybean [21]; 500 g ai/ha, postemergence) | Plant response rating, Soybean (soybean [21]; Postemergence, 125 g ai/ha) | Plant response rating, Galium (galium; 500 g ai/ha, postemergence) | Plant response rating, Galium (galium; Postemergence, 125 g ai/ha)
0: Plant response rating, Kochia (kochia [5]; [24]) | Plant response rating, Blackgrass (blackgrass [13]; Postemergence, 125 g ai/ha) | Plant response rating, Barnyardgrass (Flood) (barnyardgrass [23]) | Plant response rating, Ducksalad (Flood) (ducksalad) | Plant response rating, Rice (Flood) (rice) | Plant response rating, Sedge, Umbrella (Flood) (sedge, umbrella)
50: Plant response rating, Soybean (soybean [10]; [24]) | Plant response rating, Ragweed (ragweed [19]; Postemergence, 125 g ai/ha)
10: Plant response rating, Ragweed (ragweed [8]; [24])
40: Corn plant response rating (corn [3]; 500 g ai/ha) | Plant response rating, Foxtail, Green (green foxtail [15]; Postemergence, 125 g ai/ha)
90: Plant response rating, Barnyardgrass (barnyardgrass [1]; [24]) | Blackgrass plant response rating (blackgrass [2]; 500 g ai/ha) | Oat, Wild plant response rating (oat, wild [6]; 500 g ai/ha) | Plant response rating, Ryegrass, Italian (ryegrass, Italian [9]; [24]) | Wheat plant response rating (wheat [11]; 500 g ai/ha) | Plant response rating, Foxtail, Green (green foxtail [15]; 500 g ai/ha, postemergence) | Plant response rating, Kochia (kochia [16]; 500 g ai/ha, postemergence) | Plant response rating, Oat, Wild (oat, wild [17]; 500 g ai/ha, postemergence)
70: Plant response rating, Barnyardgrass (barnyardgrass [12]; 500 g ai/ha, postemergence) | Plant response rating, Ragweed (ragweed [19]; 500 g ai/ha, postemergence) | Plant response rating, Ryegrass, Italian (ryegrass, Italian [20]; 500 g ai/ha, postemergence)
80: Plant response rating, Blackgrass (blackgrass [2]; [24]) | Kochia plant response rating (kochia [5]; 500 g ai/ha) | Plant response rating, Oat, Wild (oat, wild [6]; [24]) | Plant response rating, Kochia (kochia [16]; Postemergence, 125 g ai/ha) | Plant response rating, Pigweed, Palmer (pigweed, palmer [18]; Postemergence, 125 g ai/ha) | Plant response rating, Horseweed (horseweed; 500 g ai/ha, postemergence)
30: Plant response rating, Wheat (wheat [11]; [24]) | Plant response rating, Barnyardgrass (barnyardgrass [12]; Postemergence, 125 g ai/ha) | Plant response rating, Wheat (wheat [22]; Postemergence, 125 g ai/ha) | Plant response rating, Horseweed (horseweed; Postemergence, 125 g ai/ha)
